In PMC3720659, “Integrated Analysis of Drug-Induced Gene Expression Profiles Predicts Novel hERG Inhibitors” (PLoS ONE, 2013):

molecular target: T1, hERG channel (Homo sapiens, UniProt Q12809); test: not given; settings: not given
T1 sequence (Q12809 whole entry): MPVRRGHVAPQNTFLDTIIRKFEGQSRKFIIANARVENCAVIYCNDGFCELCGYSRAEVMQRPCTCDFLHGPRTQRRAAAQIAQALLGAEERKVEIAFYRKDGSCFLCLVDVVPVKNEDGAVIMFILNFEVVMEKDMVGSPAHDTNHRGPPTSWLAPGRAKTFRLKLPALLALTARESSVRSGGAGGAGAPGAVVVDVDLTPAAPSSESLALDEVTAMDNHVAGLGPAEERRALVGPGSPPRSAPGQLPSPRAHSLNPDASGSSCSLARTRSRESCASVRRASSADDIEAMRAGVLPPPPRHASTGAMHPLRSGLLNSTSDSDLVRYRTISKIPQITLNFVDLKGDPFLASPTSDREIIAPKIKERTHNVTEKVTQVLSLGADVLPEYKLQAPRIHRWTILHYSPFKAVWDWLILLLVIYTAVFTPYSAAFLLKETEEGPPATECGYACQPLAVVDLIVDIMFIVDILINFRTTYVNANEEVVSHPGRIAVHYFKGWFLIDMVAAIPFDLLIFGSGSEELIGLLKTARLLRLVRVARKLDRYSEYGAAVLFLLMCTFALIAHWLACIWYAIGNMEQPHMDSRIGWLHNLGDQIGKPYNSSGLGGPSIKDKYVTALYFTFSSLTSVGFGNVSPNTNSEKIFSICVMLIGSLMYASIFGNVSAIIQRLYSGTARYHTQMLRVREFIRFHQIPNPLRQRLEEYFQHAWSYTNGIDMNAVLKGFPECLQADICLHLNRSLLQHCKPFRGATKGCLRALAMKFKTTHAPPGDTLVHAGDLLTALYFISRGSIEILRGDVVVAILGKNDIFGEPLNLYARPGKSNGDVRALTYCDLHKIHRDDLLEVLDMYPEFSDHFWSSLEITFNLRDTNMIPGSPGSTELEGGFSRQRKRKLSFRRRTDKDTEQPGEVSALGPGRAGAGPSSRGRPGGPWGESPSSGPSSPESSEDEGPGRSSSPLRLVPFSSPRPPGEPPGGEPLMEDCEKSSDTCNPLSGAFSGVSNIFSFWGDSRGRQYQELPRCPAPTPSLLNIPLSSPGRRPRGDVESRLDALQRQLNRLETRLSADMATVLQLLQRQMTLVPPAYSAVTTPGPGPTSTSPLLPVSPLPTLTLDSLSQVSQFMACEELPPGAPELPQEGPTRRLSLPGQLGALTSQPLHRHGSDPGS

Compound	Behaviour during hERG electrophysiology recording
CCCCC(CC)CN1CN(CC(CC)CCCC)CC(C)(N)C1 (stereo not shown) [Hexetidine]	appears to disrupt the membrane seal during recording

molecular target: T1, hERG channel; test: cell-based; settings: not given

Compound	IC50
Clc1ccc(C(OCCN2CCCCC2)c2ccccc2)cc1 (stereo not shown) [Cloperastine]	360 ± 50 nM
CC(NCCC(c1ccccc1)c1ccccc1)c1ccccc1 (stereo not shown) [Fendiline, reference compound]	2600 ± 100 nM

system: hERG current; test: not given; settings: annotation of the drug; Cell Line (HL60, MCF7, PC3) is the cell line of the drug-induced expression profile, not of the hERG assay; ref hERGcentral; cited from earlier work

Compound	Annotation (hERG inhibition class, Active/Inactive by IC50)
O=C1CCC(N2C(=O)c3ccccc3C2=O)C(=O)N1 (stereo not shown) [thalidomide]	Inactive
COc1c(O[C@@H]2O[C@H](CO)[C@@H](O)[C@H](O)[C@H]2O)cc2c(c1OC)-c1ccc(SC)c(=O)cc1[C@@H](NC(C)=O)CC2 [thiocolchicoside]	Inactive
Nc1nc2c(ncn2[C@@H]2O[C@H](CO)[C@@H](O)[C@H]2O)c(=S)[nH]1 [thioguanosine]	Inactive
CC(C(=O)O)c1ccc(C(=O)c2ccccc2)s1 (stereo not shown) [tiaprofenic acid]	Inactive
Cc1ccc(S(=O)(=O)NC(=O)NN2CCCCCC2)cc1 [tolazamide]	Inactive
c1ccc(CC2=NCCN2)cc1 [tolazoline]	Inactive
CCCCNC(=O)NS(=O)(=O)c1ccc(C)cc1 [tolbutamide]	Inactive
Cc1c(Cl)cccc1Nc1ccccc1C(=O)O [tolfenamic acid]	Inactive
Cc1cccc(N(C)C(=S)Oc2ccc3ccccc3c2)c1 [tolnaftate]	Inactive
CCCCNc1c(C(=O)OCC)c(C)nc2c1cnn2CC [tracazolate]	Inactive
O=c1[nH]c(=O)n([C@H]2C[C@H](O)[C@@H](CO)O2)cc1C(F)(F)F [trifluridine]	Inactive
COc1cc(Cc2cnc(N)nc2N)cc(OC)c1OC [trimethoprim]	Inactive
Cc1ccc(/C(=C\CN2CCCC2)c2ccccn2)cc1 [triprolidine]	Active
Nc1ncnc2c1ncn2[C@@H]1O[C@H](CO)[C@@H](O)[C@@H]1O [vidarabine]	Inactive
COC(=O)[C@@H]1[C@H]2C[C@H]3c4[nH]c5ccccc5c4CCN3C[C@@H]2CC[C@@H]1O [yohimbine]	Active
OCCN1CCN(CC/C=C2/c3ccccc3Sc3ccc(Cl)cc32)CC1 [zuclopenthixol]	Active
rifabutin	Inactive
triamcinolone	Inactive

same assay, conditions: cited from earlier work

Compound	Annotation (hERG Active / Inactive)	hERG inhibition call in the high-throughput electrophysiology assay	Annotation (hERG inhibition class, Active/Inactive by IC50)
OC(c1cc(C(F)(F)F)nc2c(C(F)(F)F)cccc12)C1CCCCN1 (stereo not shown) [Mefloquine, reference compound]	Inactive	inactive	
Cc1ccc(C(=O)c2ccc(CC(=O)O)n2C)cc1 [tolmetin]			Inactive
Nc1nc(N)c2nc(-c3ccccc3)c(N)nc2n1 [triamterene]			Inactive
atovaquone	Inactive		
diethylstilbestrol	Inactive		

same assay, conditions: hERG annotation of the drug; the Cell Line (HL60, MCF7, PC3) names the expression profile, not the hERG test; cited from earlier work

Compound	Annotation (hERG Active / Inactive)
adenosine phosphate	Inactive
diphenylpyraline	Inactive
doxycycline	Inactive
estrone	Inactive
felodipine	Inactive

same assay, conditions: hERG inhibition annotation of the drug; the Cell Line (HL60, MCF7, PC3) is the cell line of the expression profile, not of the hERG test; cited from earlier work

Compound	Annotation (hERG Active / Inactive)
Clc1ccc(COC(Cn2ccnc2)c2ccc(Cl)cc2Cl)c(Cl)c1 (stereo not shown) [Miconazole, reference compound]	Inactive
fluticasone	Inactive
hydrocortisone	Inactive
isometheptene	Inactive
meglumine	Inactive
minocycline	Inactive
mometasone	Inactive
naloxone	Active
nitrendipine	Inactive
prednisolone	Inactive

same assay, conditions: inhibitor means 50% or more decrease of hERG current at 10 µM; acute recording; cited from earlier work

Compound	hERG inhibition call in the high-throughput electrophysiology assay
Clc1ccc2c(c1)C(N1CCNCC1)=Nc1ccccc1O2 [Amoxapine, reference compound]	negatives
Clc1ccc(COC(Cn2ccnc2)c2ccc(Cl)cc2Cl)c(Cl)c1 (stereo not shown) [Miconazole, reference compound]	inactive

system: recombinantly expressed hERG channels; test: not given; settings: cited from earlier work

Compound	Inhibition of hERG channels recombinantly expressed in cell lines
OC(c1cc(C(F)(F)F)nc2c(C(F)(F)F)cccc12)C1CCCCN1 (stereo not shown) [Mefloquine, reference compound]	inhibit
Clc1ccc(COC(Cn2ccnc2)c2ccc(Cl)cc2Cl)c(Cl)c1 (stereo not shown) [Miconazole, reference compound]	inhibit

same assay, conditions: read-out: IC50 for inhibition of the current of recombinantly expressed hERG channels; cited from earlier work

Compound	IC50
CCN(CC)CCOc1ccc(C(=C(Cl)c2ccccc2)c2ccccc2)cc1 [Clomiphene]	180 nM

system: not given; test: not given; settings: drug on LQT Drug List; the Cell Line (HL60, MCF7, PC3) is the cell line of the expression profile; cited from earlier work

Compound	Annotation (LQT Drug)
OCCN1CCN(CCCN2c3ccccc3Sc3ccc(C(F)(F)F)cc32)CC1 [fluphenazine]	LQT Drug
COC1=C2C[C@@H](C)C[C@H](OC)[C@H](O)[C@@H](C)/C=C(\C)[C@H](OC(N)=O)[C@@H](OC)/C=C\C=C(/C)C(=O)NC(=CC1=O)C2=O [geldanamycin]	LQT Drug
CC1Cc2ccccc2N1NC(=O)c1ccc(Cl)c(S(N)(=O)=O)c1 (stereo not shown) [indapamide]	LQT Drug
CC(=O)N1CCN(c2ccc(OCC3COC(Cn4ccnc4)(c4ccc(Cl)cc4Cl)O3)cc2)CC1 (stereo not shown) [ketoconazole]	LQT Drug
CNCCCC12CCC(c3ccccc31)c1ccccc12 [maprotiline]	LQT Drug
Cc1cccc(C)c1OCC(C)N (stereo not shown) [mexiletine]	LQT Drug
CNCCC=C1c2ccccc2CCc2ccccc21 [nortriptyline]	LQT Drug
CC1COc2c(N3CCN(C)CC3)c(F)cc3c(=O)c(C(=O)O)cn1c23 (stereo not shown) [ofloxacin]	LQT Drug
CC(Cc1ccccc1)NCCC(c1ccccc1)c1ccccc1 (stereo not shown) [prenylamine]	LQT Drug

same assay, conditions: on LQT Drug List; the Cell Line (HL60, MCF7, PC3) names the expression profile; cited from earlier work

Compound	Annotation (LQT Drug)
Clc1ccc2c(c1)C(N1CCNCC1)=Nc1ccccc1O2 [Amoxapine, reference compound]	LQT Drug
COc1cc2nc(N(C)CCCNC(=O)C3CCCO3)nc(N)c2cc1OC (stereo not shown) [alfuzosin]	LQT Drug
NC12CC3CC(CC(C3)C1)C2 [amantadine]	LQT Drug
CN(C)CCC=C1c2ccccc2CCc2ccccc21 [amitriptyline]	LQT Drug
CCN(CC)CCCC(C)Nc1ccnc2cc(Cl)ccc12 (stereo not shown) [chloroquine]	LQT Drug
CNCCCN1c2ccccc2CCc2ccccc21 [desipramine]	LQT Drug
CC(CCc1ccc(O)cc1)NCCc1ccc(O)c(O)c1 (stereo not shown) [dobutamine]	LQT Drug

same assay, conditions: previous literature; not in the LQT drug lists used; cited from earlier work

Compound	Association with drug-induced LQT
CC(NCCC(c1ccccc1)c1ccccc1)c1ccccc1 (stereo not shown) [Fendiline, reference compound]	drug-induced LQT
